Assays:
[1] = test system: THP-1 cells; assay: Cell viability of THP-1 cells (CytoX)
Protocol: After 1 hour, each sample was treated at a concentration of 5 μM. After culturing for 24 hours, 5 μL of CytoX (LPS solution, Korea) solution was added into each well and incubated for another 4 hours. Then, absorbance was measured at 450 nm. The cell viability was calculated according to the following equation with the value of the negative control treated with DMSO as 100%.

[2] = test system: Resistin-induced TNF-α production in THP-1 cells; assay: TNF-alpha assay: Resistin-induced TNF-α production in THP-1 cells (ELISA); assay type: cell-based, human; conditions: for inhibitory effect on TNF-α induced by Resistin: in words, summary of Table 3b
Protocol: TNF-alpha assay was performed to examine the anti-inflammatory effect induced by the Resistin-CAP1 binding on the Elaeocarpus petiolatus extracts, fractions, and single compounds isolated therefrom.
After culturing for 1 hour, 2 μg/mL of human recombinant Resistin (Biovision) was treated and further cultured for 6 hours. Thereafter, the supernatant was recovered and stored at −70° C.
For TNF-alpha assay, Human TNF-alpha ELISA kit (BD bioscience) was used and analyzed according to the manufacturer's protocol.

[3] = biological target: T1, Resistin-CAP1 binding (Homo sapiens, UniProt Q9HD89); assay: Resistin-CAP1 competitive binding assay (enzyme immunological method); conditions: for Resistin-CAP1 binding inhibitory effect: in words, FIG. 5a-5c; for binding inhibitory activity of Resistin-CAP1: 25 μM, 50 μM, and 100 μM, FIG. 8
T1 sequence (Q9HD89 19-108): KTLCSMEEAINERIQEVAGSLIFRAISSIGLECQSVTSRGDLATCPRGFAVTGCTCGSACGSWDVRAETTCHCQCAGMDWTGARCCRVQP
Protocol: Recombinant CAP-1 protein was attached to a plate for immunoassay overnight, washed, and then the attachment of other proteins was blocked with 1% BSA/PBS solution, and the recombinant Resistin to which mouse Fc was attached and the sample were pre-reacted for 1 hour. Then, the solution was dispensed on the plate and reacted at room temperature for 2 hours. After washing the plate, HRP to be attached to the mFc of Resistin bound to CAP-1 was dispensed and reacted for 1 hour. After washing, the substrate was dispensed and reacted for 30 minutes by HRP, and absorbance was measured at a wavelength of 450 nm with a microplate meter.

[4] = 10 μg/mL, RETN +, THP-1 cells, isolated compounds

Compound | Viability (%, Average ± Standard Deviation) ([1]; 2.5 μg/mL) [%] | Viability (%, Average ± Standard Deviation) ([1]; 5 μg/mL) [%] | Viability (%, Average ± Standard Deviation) ([1]; 10 μg/mL, isolated compounds) [%] | Viability (%, Average ± Standard Deviation) ([1]; 20 μg/mL) [%] | inhibition at 5 µg/mL ([2]; Homo sapiens, 5 μg/mL, RETN +, THP-1 cells, read-out: TNF-α Inhibition Rate (%, Average ± Standard Deviation)) [%] | inhibition at 10 µg/mL ([2]; Homo sapiens, 10 μg/mL, RETN +, THP-1 cells, isolated compounds, read-out: TNF-α Inhibition Rate (%, Average ± Standard Deviation)) [%] | inhibition at 20 µg/mL ([2]; Homo sapiens, 20 μg/mL, RETN +, THP-1 cells, read-out: TNF-α Inhibition Rate (%, Average ± Standard Deviation)) [%] | inhibitory effect on TNF-α induced by Resistin [2] | Resistin-CAP1 binding inhibitory effect [3] | TNF-α Inhibition Rate (%, Average ± Standard Deviation) ([2]; 5 μg/mL, RETN +, THP-1 cells) [%] | TNF-α Inhibition Rate (%, Average ± Standard Deviation) [2, 4] [%] | TNF-α Inhibition Rate (%, Average ± Standard Deviation) ([2]; 20 μg/mL, RETN +, THP-1 cells) [%] | binding inhibitory activity of Resistin-CAP1 [3]
O=c1oc2c(O)c(O)cc3c(=O)oc4c(O)c(O)cc1c4c23 [Ellagic acid (6D), Ellagic acid] | 96.89 ± 0.05 | 98.73 ± 0.91 | 94.38 ± 0.13 | 89.21 ± 1.01 | 16.4 ± 5.12 | 27.4 ± 4.5 | -18.6 ± 3.16 | exhibited an inhibitory effect on TNF-α production | concentration-dependent inhibitory effect | – | – | – | –
C[C@H]1O[C@@H](Oc2c(-c3cc(O)c(O)c(O)c3)oc3cc(O)cc(O)c3c2=O)[C@@H](O)[C@@H](O)[C@@H]1O [Myricetin-3-O-α-L-rhamnoside (5E2), Myricetin-3-O-α-L-rhamnoside] | 99.54 ± 3.22 | 106.14 ± 0.93 | 98.85 ± 1.07 | 100.12 ± 0.64 | – | – | – | exhibited an inhibitory effect on TNF-α production | concentration-dependent inhibitory effect | 28.57 ± 6.79 | 24.13 ± 3.31 | 33.64 ± 9.21 | inhibited the binding of Resistin-CAP1 in a concentration-dependent manner
O=c1c(O)c(-c2cc(O)c(O)c(O)c2)oc2cc(O)cc(O)c12 [myricetin, Myricetin, reference compound] | – | – | – | – | – | – | – | – | – | – | – | – | no inhibitory activity
Isorhamnetin-3-O-β-D-hexoside [Isorhamnetin-3-O-β-D-hexoside (6E)] | 101.71 ± 4.56 | 101.88 ± 0.10 | 95.02 ± 0.20 | 94.72 ± 0.28 | – | – | – | exhibited an inhibitory effect on TNF-α production | concentration-dependent inhibitory effect | 43.06 ± 10.44 | 51.29 ± 5.76 | 59.53 ± 9.02 | –
